We go through 21 molecules from US20090069370A1, “AZACYCLYLISOQUINOLINONE AND ISOINDOLINONE DERIVATIVES AS HISTAMINE-3 ANTAGONISTS” (Wyeth, priority 2007, published 2009).

SMILES strings stand for the structures. Counter-ions that a name gives are not always drawn.

A word on the melting point: it is the temperature, or range, at which the solid turns liquid. As to `O=C(NC1CCCC1)c1ccc2c(c1)CCN([C@@H]1CCN(C3CCC3)C1)C2=O` (as salt: hydrochloride) [Example 88, 2-[(3R)-1-cyclobutylpyrrolidin-3-yl]-N-cyclopentyl-1-oxo-1,2,3,4-tetrahydroisoquinoline-6-carboxamide hydrochloride], the melting point was 124 to 125 °C.

Molecule `CNC(=O)c1ccc(-c2ccc3c(c2)CCN([C@@H]2CCN(C(C)C)C2)C3=O)c(F)c1` (as salt: hydrochloride) [Example 85, 3-fluoro-4-{2-[(3R)-1-isopropylpyrrolidin-3-yl]-1-oxo-1,2,3,4-tetrahydroisoquinolin-6-yl}-N-methylbenzamide] returned a melting point of 245 to 247 °C.

Turning to `O=C(c1ccc(-c2ccc3c(c2)CCN(C2CCNCC2)C3=O)cc1)N1CCCC1` [Example 64, 2-(piperidin-4-yl)-6-(4-(pyrrolidine-1-carbonyl)phenyl)-3,4-dihydroisoquinolin-1(2H)-one], the melting point is above 273 °C.

Consider `O=C(c1ccc(-c2ccc3c(c2)CCN(C2CCN(Cc4ccccc4)CC2)C3=O)cc1)N1CCCC1` [Example 63, 2-(1-benzylpiperidin-4-yl)-6-(4-(pyrrolidine-1-carbonyl)phenyl)-3,4-dihydroisoquinolin-1(2H)-one], for which the melting point lay in the range of 197 to 198 °C.

`CCNC(=O)c1ccc(-c2ccc3c(c2)CCN([C@@H]2CCN(C4CCC4)C2)C3=O)cc1` (as salt: hydrochloride) [Example 45, 4-{2-[(3R)-1-cyclobutylpyrrolidin-3-yl]-1-oxo-1,2,3,4-tetrahydroisoquinolin-6-yl}-N-ethylbenzamide]: the melting point lay in the range of 268 to 272 °C.

`O=C(NC1CCC1)c1ccc(Oc2ccc3c(c2)CCN(C2CCN(C4CCC4)CC2)C3=O)cc1` (as salt: hydrochloride) [Example 8, N-Cyclobutyl-4-{[2-(1-cyclobutylpiperidin-4-yl)-1-oxo-1,2,3,4-tetrahydroisoquinolin-6-yl]oxy}benzamide] gave a melting point above 300 °C.

As to `N#Cc1ccc(-c2ccc3c(c2)CN(C2CCN(CC4CC4)CC2)C3=O)cc1` (as salt: hydrochloride) [Example 26, 4-{2-[1-(Cyclopropylmethyl)piperidin-4-yl]-1-oxo-2,3-dihydro-1H-isoindol-5-yl}benzonitrile], the melting point is 309 to 310 °C.

`O=C(c1ccc(-c2ccc3c(c2)CCN([C@@H]2CCN(Cc4ccoc4)C2)C3=O)cc1)N1CCCC1` (as salt: hydrochloride) [Example 60, 2-[(3R)-1-(furan-3-ylmethyl)pyrrolidin-3-yl]-6-[4-(pyrrolidin-1-ylcarbonyl)phenyl]-3,4-dihydroisoquinolin-1(2H)-one] displayed a melting point of 254 to 256 °C.

In turn, `CN(C)C(=O)c1ccc(Oc2ccc3c(c2)CCN(C2CCN(C4CCC4)CC2)C3=O)cc1` (as salt: hydrochloride) [Example 10, 4-{[2-(1-Cyclobutylpiperidin-4-yl)-1-oxo-1,2,3,4-tetrahydroisoquinolin-6-yl]oxy}-N,N-dimethylbenzamide] came in with a melting point of 262 to 264 °C.

Regarding `O=C(c1ccc(-c2ccc3c(c2)CCN([C@@H]2CCCN(C4CCC4)C2)C3=O)cc1)N1CCCC1` (as salt: hydrochloride) [Example 70, 2-[(3R)-1-cyclobutylpiperidin-3-yl]-6-[4-(pyrrolidin-1-ylcarbonyl)phenyl]-3,4-dihydroisoquinolin-1(2H)-one], the melting point fell in the range of 260.5 to 262 °C.

Turning to `CCNC(=O)c1ccc(Oc2ccc3c(c2)CCN(C2CCN(C4CCC4)CC2)C3=O)cc1` (as salt: hydrochloride) [Example 5, 4-{[2-(1-Cyclobutylpiperidin-4-yl)-1-oxo-1,2,3,4-tetrahydroisoquinolin-6-yl]oxy}-N-ethylbenzamide], the melting point was 317 to 318 °C.

As for `COC(=O)c1ccc(Oc2ccc3c(c2)CCN(C2CCN(C4CCC4)CC2)C3=O)cc1` (as salt: hydrochloride) [Example 1, methyl 4-{[2-(1-Cyclobutylpiperidin-4-yl)-1-oxo-1,2,3,4-tetrahydroisoquinolin-6-yl]oxy}benzoate], the melting point fell in the range of 269 to 270 °C.

`CC(C)N1CCC(N2CCc3cc(-c4ccc(C(=O)N5CCCC5)cc4)ccc3C2=O)CC1` (as salt: hydrochloride) [Example 67, 2-(1-isopropylpiperidin-4-yl)-6-[4-(pyrrolidin-1-ylcarbonyl)phenyl]-3,4-dihydroisoquinolin-1(2H)-one] showed a melting point above 300 °C.

In the case of `O=C(c1ccc(-c2ccc3c(c2)CCN([C@@H]2CCN(Cc4cccs4)C2)C3=O)cc1)N1CCCC1` (as salt: hydrochloride) [Example 62, 6-[4-(pyrrolidin-1-ylcarbonyl)phenyl]-2-[(3R)-1-(thiophen-2-ylmethyl)pyrrolidin-3-yl]-3,4-dihydroisoquinolin-1(2H)-one], the melting point was in the range of 249 to 250 °C.

As for `CNC(=O)c1ccc(-c2ccc3c(c2)CCN([C@@H]2CCN(C4CCCC4)C2)C3=O)cc1` (as salt: hydrochloride) [Example 41, 4-{2-[(3R)-1-cyclopentylpyrrolidin-3-yl]-1-oxo-1,2,3,4-tetrahydroisoquinolin-6-yl}-N-methylbenzamide], the melting point was above 240 °C.

Take `O=C(NC1CCC1)c1ccc(COc2ccc3c(c2)CCN(C2CCN(C4CCC4)CC2)C3=O)cc1` (as salt: hydrochloride) [Example 19, N-Cyclobutyl-4-({[2-(1-cyclobutylpiperidin-4-yl)-1-oxo-1,2,3,4-tetrahydroisoquinolin-6-yl]oxy}methyl)benzamide]: the melting point fell in the range of 286 to 288 °C.

For `O=C(c1ccc(-c2ccc3c(c2)CCN([C@@H]2CCN(C4CCC4)C2)C3=O)c(F)c1)N1CCCC1` (as salt: hydrochloride) [Example 79, 2-[(3R)-1-cyclobutylpyrrolidin-3-yl]-6-[2-fluoro-4-(pyrrolidin-1-ylcarbonyl)phenyl]-3,4-dihydroisoquinolin-1(2H)-one], the melting point lay within 211 to 212 °C.

`CNC(=O)c1ccc(-c2ccc3c(c2)CN([C@@H]2CCN(C4CCC4)C2)C3=O)cc1` (as salt: hydrochloride) [Example 91, (R)-4-(2-(1-cyclobutylpyrrolidin-3-yl)-1-oxoisoindolin-5-yl)-N-methylbenzamide hydrochloride]: the melting point lay in the range of 207 to 208 °C.

Regarding `O=C(c1ccc(-c2ccc3c(c2)CCN([C@@H]2CCN(C4CCC4)C2)C3=O)cc1Cl)N1CCCC1` (as salt: hydrochloride) [Example 49, 6-[3-chloro-4-(pyrrolidin-1-ylcarbonyl)phenyl]-2-[(3R)-1-cyclobutylpyrrolidin-3-yl]-3,4-dihydroisoquinolin-1(2H)-one], the melting point is 198 to 200 °C.

The molecule `CC(C)NC(=O)c1ccc(Oc2ccc3c(c2)CCN(C2CCN(C4CCC4)CC2)C3=O)cc1` (as salt: hydrochloride) [Example 6, 4-{[2-(1-Cyclobutylpiperidin-4-yl)-1-oxo-1,2,3,4-tetrahydroisoquinolin-6-yl]oxy}-N-isopropylbenzamide] yielded a melting point of 309 to 311 °C.

In the case of `CN1CC[C@@H](N2CCc3cc(-c4ccc(C(=O)N5CCCC5)cc4)ccc3C2=O)C1` (as salt: hydrochloride) [Example 55, 2-[(3R)-1-methylpyrrolidin-3-yl]-6-[4-(pyrrolidin-1-ylcarbonyl)phenyl]-3,4-dihydroisoquinolin-1(2H)-one], the melting point was above 230 °C.
